Activity calls are given as the source filed them. The rule behind the calls is not given here.
Key:
Vero = assay: Cytotoxicity against African green monkey Vero cells after 48 hrs by neutral red uptake assay; format: cell-based; settings: Chlorocebus sabaeus
[1] = Selectivity index, ratio of IC50 for African green monkey Vero cells to IC50 for chloroquine-sensitive Plasmodium falciparum D6 infected in human RBC; format: toxicity; settings: read-out: Ratio IC50
Plasmodium falciparum [2] = assay: Antiplasmodial activity against chloroquine-sensitive Plasmodium falciparum D6 infected in human RBC assessed as decrease in parasite viability after 72 hrs by LDH assay; format: functional; settings: D6, 72 h
Plasmodium falciparum [3] = assay: Antiplasmodial activity against chloroquine-resistant Plasmodium falciparum W2 infected in human RBC assessed as decrease in parasite viability after 72 hrs by LDH assay; format: functional; settings: W2, 72 h
[4] = Selectivity index, ratio of IC50 for African green monkey Vero cells to IC50 for chloroquine-resistant Plasmodium falciparum W2 infected in human RBC; format: toxicity; settings: read-out: Ratio IC50
Plasmodium falciparum [5] = assay: Potency index, ratio of chloroquine IC50 to compound IC50 for chloroquine-resistant Plasmodium falciparum W2; format: functional
Heme [6] = assay: Binding affinity to monomeric heme (unknown origin) assessed as 1:1 stoichiometry for heme-compound complex at 10 uM at pH 5.6 and 7.4 by Job's plot analysis
Heme [7] = assay: Binding affinity to monomeric heme (unknown origin) assessed as decrease in intensity of soret band at 402 nm at pH 5.6 and 7.4 by spectrophotometric titration method
[8] = Binding affinity to dimeric heme (unknown origin) assessed as change in absorbance band intensity at 362 nm at 10 uM at pH 5.6 by spectrophotometric titration method

With CCN(CC)CCCC(C)Nc1ccnc2cc(Cl)ccc12 (configuration not stated) [CHLOROQUINE] the IC50 (Vero) was > 14.9 µM.
For CN(C)c1nc(Cl)nc2c1ncn2CCCNc1ccnc2cc(Cl)ccc12, the selectivity ratio [1] was > 45, the IC50 (Plasmodium falciparum [2]) was 254 nM and the IC50 (Plasmodium falciparum [3]) was 1090 nM. The IC50 (Vero) was > 11.5 µM and the selectivity ratio [4] was > 10.5.
In the case of C[C@@H]1CC[C@H]2[C@@H](C)C(=O)O[C@@H]3O[C@@]4(C)CC[C@@H]1[C@]32OO4 [ARTEMISININ], the IC50 (Plasmodium falciparum [2]) is reported as 25 nM and the IC50 (Vero) is reported as > 16.9 µM.
With CN(C)c1nc(Cl)nc2c1ncn2CCNc1ccnc2cc(Cl)ccc12 the selectivity ratio [1] was > 46.6, the IC50 (Plasmodium falciparum [2]) was 254 nM and the IC50 (Plasmodium falciparum [3]) was 361 nM. The IC50 (Vero) was > 11.9 µM and the selectivity ratio [4] was > 32.8.
For Clc1ccc2c(NCCCn3cnc4c(N5CCCCCC5)nc(Cl)nc43)ccnc2c1, the selectivity ratio [1] was > 8.3, the IC50 (Plasmodium falciparum [2]) was 1230 nM and the IC50 (Plasmodium falciparum [3]) was 2380 nM. The IC50 (Vero) was > 10.1 µM and the selectivity ratio [4] was > 4.3.
With CCN(CC)c1nc(Cl)nc2c1ncn2CCNc1ccnc2cc(Cl)ccc12 the selectivity ratio [1] was > 2.4, the IC50 (Plasmodium falciparum [2]) was 4650 nM and the IC50 (Plasmodium falciparum [3]) was 6760 nM. For the same compound, the IC50 (Vero) was > 11.1 µM and the selectivity ratio [4] was > 1.6.
In the case of Clc1ccc2c(NCCn3cnc4c(N5CCCC5)nc(Cl)nc43)ccnc2c1, the selectivity ratio [1] is reported as > 25, the IC50 (Plasmodium falciparum [2]) is reported as 445 nM and the IC50 (Plasmodium falciparum [3]) is reported as 984 nM. The IC50 (Vero) was > 11.1 µM and the selectivity ratio [4] was > 11.3.
For Clc1ccc2c(NCCn3cnc4c(N5CCCCC5)nc(Cl)nc43)ccnc2c1, the selectivity ratio [1] was > 31.1, the IC50 (Plasmodium falciparum [2]) was 347 nM and the IC50 (Plasmodium falciparum [3]) was 2450 nM. The IC50 (Vero) was > 10.8 µM and the selectivity ratio [4] was > 4.4.
For Clc1ccc2c(NCCCn3cnc4c(N5CCSCC5)nc(Cl)nc43)ccnc2c1, the selectivity ratio [1] was > 22.6, the IC50 (Plasmodium falciparum [2]) was 446 nM and the IC50 (Plasmodium falciparum [3]) was 1800 nM. For the same compound, the IC50 (Vero) was > 10.1 µM and the selectivity ratio [4] was > 5.6.
For Clc1ccc2c(NCCn3cnc4c(N5CCSCC5)nc(Cl)nc43)ccnc2c1, the selectivity ratio [1] was 19.5, the IC50 (Plasmodium falciparum [2]) was 292 nM and the IC50 (Plasmodium falciparum [3]) was 590 nM. It also gave an IC50 (Vero) of 5.68 µM and a selectivity ratio [4] of 9.6.
In the case of Clc1ccc2c(NCCCn3cnc4c(N5CCOCC5)nc(Cl)nc43)ccnc2c1, the selectivity ratio [1] is reported as > 12.5, the IC50 (Plasmodium falciparum [2]) is reported as 833 nM and the IC50 (Plasmodium falciparum [3]) is reported as 1150 nM. For the same compound, the IC50 (Vero) was > 10.4 µM and the selectivity ratio [4] was > 9.1.
With Clc1ccc2c(NCCCn3cnc4c(N5CCCC5)nc(Cl)nc43)ccnc2c1 the selectivity ratio [1] was > 10, the IC50 (Plasmodium falciparum [2]) was 1080 nM and the IC50 (Plasmodium falciparum [3]) was 1760 nM. For the same compound, the IC50 (Vero) was > 10.8 µM and the selectivity ratio [4] was > 6.1.
In the case of Clc1ccc2c(NCCCn3cnc4c(N5CCN(c6ccccc6)CC5)nc(Cl)nc43)ccnc2c1, the selectivity ratio [1] is reported as > 47.6, the IC50 (Plasmodium falciparum [2]) is reported as 187 nM and the IC50 (Plasmodium falciparum [3]) is reported as 504 nM. For the same compound, the IC50 (Vero) was > 8.9 µM and the selectivity ratio [4] was > 17.7.
In the case of Clc1ccc2c(NCCn3cnc4c(N5CCN(c6ccccc6)CC5)nc(Cl)nc43)ccnc2c1, the selectivity ratio [1] is reported as 26.2, the IC50 (Plasmodium falciparum [2]) is reported as 154 nM and the IC50 (Plasmodium falciparum [3]) is reported as 428 nM. It also gave an IC50 (Vero) of 4.04 µM and a selectivity ratio [4] of 9.4.
With CCN1CCN(c2nc(Cl)nc3c2ncn3CCNc2ccnc3cc(Cl)ccc23)CC1 the selectivity ratio [1] was > 164, the IC50 (Plasmodium falciparum [2]) was 61 nM and the IC50 (Plasmodium falciparum [3]) was 80 nM. For the same compound, the “Ratio IC50” value (Plasmodium falciparum [5]) was 6, the IC50 (Vero) was > 10.1 µM and the selectivity ratio [4] was > 125. For the same compound, the Activity (Heme [6]) was “Active”, the Activity (Heme [7]) was “Active” and the Activity [8] was “Active”.
For Clc1ccc2c(NCCn3cnc4c(N5CCOCC5)nc(Cl)nc43)ccnc2c1, the selectivity ratio [1] was > 53.4, the IC50 (Plasmodium falciparum [2]) was 201 nM and the IC50 (Plasmodium falciparum [3]) was 226 nM. The IC50 (Vero) was > 10.7 µM and the selectivity ratio [4] was > 47.4.
For CN1CCN(c2nc(Cl)nc3c2ncn3CCNc2ccnc3cc(Cl)ccc23)CC1, the selectivity ratio [1] was > 124, the IC50 (Plasmodium falciparum [2]) was 84 nM and the IC50 (Plasmodium falciparum [3]) was 122 nM. For the same compound, the IC50 (Vero) was > 10.4 µM and the selectivity ratio [4] was > 85.4.
In the case of CCN(CC)c1nc(Cl)nc2c1ncn2CCCNc1ccnc2cc(Cl)ccc12, the selectivity ratio [1] is reported as > 19.3, the IC50 (Plasmodium falciparum [2]) is reported as 556 nM and the IC50 (Plasmodium falciparum [3]) is reported as 983 nM. The IC50 (Vero) was > 10.7 µM and the selectivity ratio [4] was > 10.9.
For CN1CCN(c2nc(Cl)nc3c2ncn3CCCNc2ccnc3cc(Cl)ccc23)CC1, the selectivity ratio [1] was > 145, the IC50 (Plasmodium falciparum [2]) was 69 nM and the IC50 (Plasmodium falciparum [3]) was 185 nM. For the same compound, the IC50 (Vero) was > 10.1 µM and the selectivity ratio [4] was > 54.5.
In the case of Clc1ccc2c(NCCn3cnc4c(N5CCCCCC5)nc(Cl)nc43)ccnc2c1, the selectivity ratio [1] is reported as > 24.9, the IC50 (Plasmodium falciparum [2]) is reported as 419 nM and the IC50 (Plasmodium falciparum [3]) is reported as 729 nM. The IC50 (Vero) was > 10.5 µM and the selectivity ratio [4] was > 14.3.
With Clc1ccc2c(NCCCn3cnc4c(N5CCCCC5)nc(Cl)nc43)ccnc2c1 the selectivity ratio [1] was > 3.1, the IC50 (Plasmodium falciparum [2]) was 3330 nM and the IC50 (Plasmodium falciparum [3]) was 3760 nM. The IC50 (Vero) was > 10.5 µM and the selectivity ratio [4] was > 2.8.
With CCN1CCN(c2nc(Cl)nc3c2ncn3CCCNc2ccnc3cc(Cl)ccc23)CC1 the selectivity ratio [1] was > 101, the IC50 (Plasmodium falciparum [2]) was 97 nM and the IC50 (Plasmodium falciparum [3]) was 198 nM. The IC50 (Vero) was > 9.83 µM and the selectivity ratio [4] was > 49.5.

From ChEMBL document CHEMBL3992507, “Design, synthesis and evaluation of 4-aminoquinoline-purine hybrids as potential antiplasmodial agents” (Eur J Med Chem, 2017)
